≈ marks a conversion by molar mass, not a printed value.
How the values were obtained:
[1] = species: Rattus norvegicus; assay: Anti-ulcer activity in stress-induced Sprague-Dawley rat […] model assessed as reduction in ulcer fomation; type: functional; set-up: Activity: concentration or dose not given beside the values; conditions: for ED50: Rattus norvegicus, Sprague-Dawley
[2] = Inhibition of Hydrogen potassium ATPase (unknown origin); set-up: species or system Homo sapiens
[3] = tested on: Mus musculus; assay: Anti-inflammatory activity against carrageenan-induced hind paw edema Swiss albino mouse model assessed as reduction in paw thickness at 10 mg/kg, po relative to control; type: functional; set-up: scale not given: the % may be the effect or the level left
[4] = tested on: Mus musculus; assay: Gastric ulcerogenic activity in Swiss albino mouse model assessed as inhibition of gastric inflammation at 250 mg/kg, po relative to control; type: functional; set-up: scale not given: the % may be the effect or the level left
[5] = tested on: Rattus norvegicus; assay: Gastric ulcerogenic activity in Albino wistar rat assessed as reduction in pyloric lesion at 250 mg/kg, po relative to control; type: functional; set-up: scale not given: the % may be the effect or the level left
[6] = Inhibition of urease (unknown origin); set-up: species or system Homo sapiens
[7] = target: Urease subunit alpha/Urease subunit beta (Helicobacter pylori (strain ATCC 700392 / 26695) (Campylobacterpylori), UniProt P69996); assay: Inhibition of Helicobacter pylori urease; type: protein-complex assay
[8] = tested on: Mus musculus; assay: Anti-ulcerogenic activity in ethanol-induced gastric ulcer mouse model assessed as reduction in ulcer formation at 250 mg/kg; type: functional
[9] = tested on: Rattus norvegicus; assay: Protection against aspirin-induced Sprague-Dawley rat model assessed as reduction in gastric glandular lesion at 20 mg/kg, po administered for 30 mins once a day relative to control; type: functional; set-up: scale not given: the % may be the effect or the level left; conditions: 0.5 h
[10] = target: T1, Gastrin/cholecystokinin type B receptor (Homo sapiens, UniProt P32239); assay: Antagonist activity at human CCKBR; type: functional
T1 sequence (P32239 whole entry): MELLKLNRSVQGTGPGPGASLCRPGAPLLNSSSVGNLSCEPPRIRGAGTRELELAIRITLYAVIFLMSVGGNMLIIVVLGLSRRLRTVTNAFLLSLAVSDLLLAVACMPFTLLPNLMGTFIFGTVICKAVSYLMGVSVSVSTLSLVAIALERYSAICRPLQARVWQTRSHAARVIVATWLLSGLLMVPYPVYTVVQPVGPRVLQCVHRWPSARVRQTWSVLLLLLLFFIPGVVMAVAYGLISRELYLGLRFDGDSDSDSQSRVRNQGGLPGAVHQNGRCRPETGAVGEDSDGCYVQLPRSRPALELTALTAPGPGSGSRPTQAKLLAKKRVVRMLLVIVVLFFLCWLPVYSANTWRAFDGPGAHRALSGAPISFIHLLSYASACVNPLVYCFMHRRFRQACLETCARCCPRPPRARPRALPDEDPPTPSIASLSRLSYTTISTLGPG

[11] = tested on: Helicobacter pylori; assay: Antibacterial activity against Helicobacter pylori assessed as reduction in bacterial growth incubated for 24 hrs by broth micro-dilution method; type: functional
[12] = tested on: Helicobacter pylori; assay: Antibacterial activity against Helicobacter pylori ATCC 43504 assessed as reduction in bacterial growth incubated for 24 hrs by broth micro-dilution method; type: functional

Urease subunit alpha/Urease subunit beta, sequence (P69996 whole entry): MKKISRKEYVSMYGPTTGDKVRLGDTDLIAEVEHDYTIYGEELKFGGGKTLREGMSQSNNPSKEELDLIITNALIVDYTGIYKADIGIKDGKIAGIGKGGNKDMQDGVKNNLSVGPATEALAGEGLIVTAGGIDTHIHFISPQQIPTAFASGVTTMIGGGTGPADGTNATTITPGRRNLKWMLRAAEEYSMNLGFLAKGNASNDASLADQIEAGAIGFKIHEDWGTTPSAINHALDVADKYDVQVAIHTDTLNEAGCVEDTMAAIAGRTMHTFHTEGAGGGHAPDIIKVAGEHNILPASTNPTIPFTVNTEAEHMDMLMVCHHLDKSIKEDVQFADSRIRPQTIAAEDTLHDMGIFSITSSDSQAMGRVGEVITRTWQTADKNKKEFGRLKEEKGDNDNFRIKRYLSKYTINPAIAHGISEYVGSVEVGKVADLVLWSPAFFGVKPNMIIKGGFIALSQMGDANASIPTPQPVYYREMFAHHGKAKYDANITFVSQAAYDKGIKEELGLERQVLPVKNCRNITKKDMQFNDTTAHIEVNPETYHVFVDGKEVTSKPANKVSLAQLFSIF
Urease subunit alpha/Urease subunit beta, sequence (P14916 whole entry, further chain): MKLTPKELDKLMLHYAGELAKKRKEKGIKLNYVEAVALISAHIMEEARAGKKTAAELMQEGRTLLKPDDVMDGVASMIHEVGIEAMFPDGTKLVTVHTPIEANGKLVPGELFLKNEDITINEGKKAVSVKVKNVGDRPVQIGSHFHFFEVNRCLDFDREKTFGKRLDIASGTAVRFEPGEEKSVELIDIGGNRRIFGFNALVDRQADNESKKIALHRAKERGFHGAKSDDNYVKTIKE

COC1Oc2ccccc2-c2sc(C=O)cc21 (configuration not stated)
Activity [1]: 7.3%

Cc1ccc(-c2csc(NC(=O)/C=C/c3ccc(O)c(O)c3)n2)cc1
IC50 [2]: 35.35 µg/mL

CCCc1cc([S+]([O-])c2nc3cc(C)ccc3[nH]2)nc(C)n1 (configuration not stated)
Activity [1]: 72.87%

CCCc1cc([S+]([O-])c2nc3cc([N+](=O)[O-])ccc3[nH]2)nc(C)n1 (configuration not stated)
Activity [1]: 75.15%

CCOC(=O)/C(=N/Nc1ccccc1)Sc1nnc(-c2c([C@H]3CC[C@H]4[C@@H]5CC=C6C[C@H](O)CC[C@]6(C)[C@H]5CC[C@]34C)csc2N)n1-c1ccccc1
Activity [3]: 0.96%
Activity [4]: 6.7%

N#CC1=C(N)Nc2nc(-c3cc4ccccc4oc3=O)sc2C1c1ccccc1 (configuration not stated)
Activity [5]: 82%

COC(=O)c1ccc(/C=N/NC(=O)Cc2c[nH]c3ccccc23)cc1
IC50 [6]: 3.9 µM

N#Cc1c(N)sc2sc(-c3cc4ccccc4oc3=O)nc12
Activity [5]: 64%

O=C(Cc1c[nH]c2ccccc12)N/N=C/c1cccc(O)c1O
IC50 [7]: 0.9 µM

[O-][S+](Cc1cc(OCC(F)(F)F)ccn1)c1nc2ccccc2[nH]1 (configuration not stated)
ED50 [1]: 2 mg/kg

CCOC1=C(Sc2nnc(-c3c([C@H]4CC[C@H]5[C@@H]6CC=C7C[C@H](O)CC[C@]7(C)[C@H]6CC[C@]45C)csc3N)n2-c2ccccc2)C(c2ccccc2)C(C#N)=C(N)N1 (some centres not stated)
Activity [3]: 0.18%
Activity [4]: 5.9%

O=C(Cc1c[nH]c2ccccc12)N/N=C/c1ccc(O)c(O)c1
IC50 [7]: 0.6 µM

CC(=O)/C(=N/Nc1ccccc1)Sc1nnc(-c2c([C@H]3CC[C@H]4[C@@H]5CC=C6C[C@H](O)CC[C@]6(C)[C@H]5CC[C@]34C)csc2N)n1-c1ccccc1
Activity [3]: 1.77%
Activity [4]: 6.2%

COc1ccc(C2C(C#N)=C(O)OC(Nc3nc4c(s3)C[C@H]3[C@@H]5CCC6=CC(=O)CC[C@]6(C)[C@H]5CC[C@]43C)=C2C#N)cc1 (some centres not stated)
Activity_index [8]: 2.48

N#Cc1c(O)nc2sc3sc(-c4cc5ccccc5oc4=O)nc3c2c1O
Activity [5]: 70%

COc1ccc(C(=O)N/N=C/c2ccc(O)c(O)c2)cc1OC
IC50 [6]: 18.2 µM

CCc1ccc(-c2nc3c(C(=O)NCc4cccc(CN)c4)cccn3c2NCc2ccccc2)cc1
IC50 ([2]; read-out: IC50): 6 µM

CC(CC1OCCc2ccccc21)NCC(C)c1ccccc1 (configuration not stated)
Activity [9]: 71.3%

COC(=O)[C@H]1Cc2c([nH]c3ccccc23)[C@H](c2ccc(C)cc2)N1
IC50 [10]: 64.6 µM

N#C/C(C(=O)Nc1sc2sc(-c3cc4ccccc4oc3=O)nc2c1C#N)=C(\C=N\Nc1ccccc1)c1ccccc1
Activity [5]: 66%

CCCc1cc([S+]([O-])c2nc3ccccc3[nH]2)nc(C)n1 (configuration not stated)
Activity [1]: 74.03%

Cc1ccccc1-c1nc2c(C(=O)NCc3cccc(CN)c3)cccn2c1NCc1ccccc1
IC50 ([2]; read-out: IC50): 6.2 µM

N#Cc1c(NC(=O)c2c(-c3ccccc3)cnn(-c3ccc(Cl)cc3)c2=N)sc2sc(-c3cc4ccccc4oc3=O)nc12
Activity [5]: 94%

COc1ccc2cc3[n+](cc2c1OC)CCc1cc2c(cc1-3)OCO2 [BERBERINE]
MIC [11]: 0.78 µg/mL

CN/C(=N\CCSCc1nc[nH]c1C)NC#N [CIMETIDINE]
Activity [9]: 51.6%

C=CCSCC=C [DIALLYL SULFIDE]
MIC [12]: 100 µg/mL (≈ 876 µM)

C=CCSSSSCC=C [DIALLYL TETRASULFIDE]
MIC [11]: 3 µg/mL (≈ 14.3 µM)

COc1ccc2c(c1OC)C(=O)O[C@@H]2[C@H]1c2cc3c(cc2CCN1C)OCO3 [HYDRASTINE]
MIC [11]: 25 µg/mL (≈ 65.2 µM)

CC(C)Cc1ccc(C(C)C(=O)O)cc1 (configuration not stated) [IBUPROFEN]
Activity [1]: 35%

CC(C)=CCOc1c2ccoc2cc2oc(=O)ccc12 [ISOIMPERATORIN]
IC50 [6]: 36.4 µM

Cc1c(OCC(F)(F)F)ccnc1C[S+]([O-])c1nc2ccccc2[nH]1 (configuration not stated) [LANSOPRAZOLE]
ED50 [1]: 2.4 mg/kg

COc1ccc2[nH]c([S+]([O-])Cc3ncc(C)c(OC)c3C)nc2c1 (configuration not stated) [OMEPRAZOLE]
IC50 [2]: 37.91 µg/mL

COc1cc2ccc(=O)oc2cc1O [SCOPOLETIN]
MIC [11]: 50 µg/mL (≈ 260 µM)

COc1cc2ccc(=O)oc2cc1O[C@@H]1O[C@H](CO)[C@@H](O)[C@H](O)[C@H]1O [SCOPOLIN]
MIC [11]: 50 µg/mL (≈ 141 µM)
